{
  "source": "patent US11072634B2",
  "about": "“Inhibitors of transglutaminases” (Zedira GmbH, priority 2016, dated 2021)",
  "key": {"[1]": {"test_system": "Htt-exon1-97Q transfected N2a-cells", "assay": "ELISA of huntingtin and isopeptide bonds in SDS-soluble and formic acid soluble cell extracts", "assay_type": "cell-based, mouse", "conditions": "N2a Htt-exon1-97Q, 150 or 300 μM, both extracts", "description": "A) Detection of huntingtin (htt) in an ELISA-Assay. Microtiter plate wells were coated with SDS-soluble and formic acid solubilized extracts of Htt-exon1-97Q transfected N2a-cells grown in the presence of 150 and 300 μM TG2-inhibitor E22. Anti-Htt-antibody 1C2 (1:250, Millipore, MAB1574) was used as detection antibody, followed by a conventional ELISA-protocol.\nB) Detection of isopeptide bonds in an ELISA-Assay. Microtiter plate wells were coated with SDS-soluble and formic acid solubilized extracts of Htt-exon1-97Q transfected N2a-cells grown in the presence of 150 and 300 μM TG2-inhibitor E22. Antibody A023 (1:200, Zedira) recognizing N^ε-(γ-L-glutamyl)-L-lysine-isopeptide was used as detection antibody, followed by a conventional ELISA-protocol. […]\nSDS-soluble and formic acid soluble extracts were used subsequently for coating of 96-well micro-titer-plates. […] Extinction was measured at 450 nm in a plate reader device.\nIn order to analyze the effect of E22 on huntingtin aggregation and cross-linking, Htt-exon1-97Q transfected N2a-cells were grown in presence of 150 or 300 μM TG2-blacker E22. SDS-soluble and formic acid soluble extracts were generated and huntingtin and cross-links (isopeptide bonds) were determined in an ELISA-format as described above."}, "TG2": {"target": "T1, TG2 (Homo sapiens, UniProt P21980)", "T1 sequence (P21980 1-687)": "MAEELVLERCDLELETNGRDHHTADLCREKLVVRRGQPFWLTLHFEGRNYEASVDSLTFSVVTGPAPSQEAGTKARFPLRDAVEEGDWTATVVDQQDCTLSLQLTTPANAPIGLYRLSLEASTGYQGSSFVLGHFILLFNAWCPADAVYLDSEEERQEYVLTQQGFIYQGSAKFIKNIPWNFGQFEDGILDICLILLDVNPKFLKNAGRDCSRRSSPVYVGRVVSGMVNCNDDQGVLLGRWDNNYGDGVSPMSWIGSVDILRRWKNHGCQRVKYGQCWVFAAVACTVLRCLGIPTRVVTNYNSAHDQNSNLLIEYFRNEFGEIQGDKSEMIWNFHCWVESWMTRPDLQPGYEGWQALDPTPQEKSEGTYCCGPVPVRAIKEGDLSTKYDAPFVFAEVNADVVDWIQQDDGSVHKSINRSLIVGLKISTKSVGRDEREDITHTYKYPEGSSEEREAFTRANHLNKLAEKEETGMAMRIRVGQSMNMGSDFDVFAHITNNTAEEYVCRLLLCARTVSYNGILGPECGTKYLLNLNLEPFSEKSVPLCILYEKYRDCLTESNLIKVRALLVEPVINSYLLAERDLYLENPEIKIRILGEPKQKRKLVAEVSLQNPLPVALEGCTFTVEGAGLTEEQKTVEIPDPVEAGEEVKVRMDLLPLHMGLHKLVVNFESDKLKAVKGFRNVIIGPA", "assay": "Transglutaminase activity of homogenates of LX-2 cells", "assay_type": "cell-based", "conditions": "LX-2, 100 μM, 12 days; read-out: Transglutaminase activity, of the inhibitor free control", "description": "A) Transglutaminase activity of homogenates from LX-2-cells grown in standard plastic 6-well plates in the presence of 0-200 μM E22 determined by TG2-selective Tissue Transglutaminase Pico-Assay Kit (#M003, Zedira, Darmstadt, Germany) according to the manufacturer's instructions.\nHuman hepatic stellate cell line LX-2 was cultured on standard plastic 6 well plates in Dulbecco's Modified Eagle's Medium containing 100 μg/mL streptomycin, 100 units/ml penicillin, 2 mM glutamine, and 10% (v/v) fetal calf serum. E22 was added to a concentration of 0 μM, 100 μM and 200 μM. Cells were grown at 37° C. and 5% CO2 humidified atmosphere. Medium was exchanged every two days."}, "BEAS-2B cells": {"test_system": "BEAS-2B cells", "assay": "Extracellular matrix protein deposition of LPS-stimulated BEAS-2B cells", "assay_type": "cell-based, human", "conditions": "0-200 μM", "description": "B) Extracellular matrix protein deposition of homogenates from BEAS-2B-cell grown in the presence of 0-200 μM E22 and stimulated with LPS measured by the DC-protein-assay (BioRad, #5000111).\nExtracellular matrix deposition is a hallmark in pulmonary fibrosis. The BEAS-2B cell line is derived from normal human bronchial epithelium.\nBEAS-2B cells were grown at 37° C. and 5% CO2 in 25 mM HEPES-buffered M199-medium (Merck, Darmstadt) containing 10% FBS, […], 2 mM glutamine, 100 U/ml penicillin (supplemented with […] apotransferrin, 20 ng/ml human epidermal growth factor (EGF), […] insulin, and 0.361 mg/ml hydrocortisone). For the induction of airway fibrosis by epithelial-to-mesenchymal transition (EMT), cells were seeded at 80% confluence on six-well plates. After one day cultivation 4 μg/mL LPS as well as 0 μM, 100 μM or 200 μM E22 were added and then incubated for further 72 h."}},
  "data": [
    {"molecule": "CCCCCNC(=O)C(=O)CC[C@H](NC(=O)[C@@H]1CCCN1C(C)=O)C(=O)Nc1cccn(CC(=O)NCC(CC)CC)c1=O", "note": "[Compound E22, (S)-2-((S)-1-acetylpyrrolidine-2-carboxamido)-N1-(1-(2-(2-ethylbutylamino)-2-oxoethyl)-2-oxo-1,2-dihydropyridin-3-yl)-5-oxo-N6-pentylhexanediamide]", "values": [
      {"measurement": "protein cross-linking (isopeptide bonds)", "setting": "[1]", "value": "reduces protein cross-linking in a dose dependent manner"},
      {"measurement": "remaining activity at 100 µM", "setting": "TG2", "value": "< 5", "unit": "%"},
      {"measurement": "deposition of ECM-proteins", "setting": "BEAS-2B cells", "value": "significantly reduced, also in a dose dependent manner"}
    ]}
  ]
}
